Assay results from patent publication US10000471B2, “Pyrazole P38 map kinase inhibitors” (Respivert Limited, priority 2010, dated 2018).
pEC50, pIC50: −log10 of the molar value.

Legend:
[1] = test system: IL-8 release in d-U937 cells; assay: LPS-induced IL-8 release in d-U937 cells; type: cell-based, human; conditions: Homo sapiens, dU937
How it was run: (§1)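 Sandwich ELISA of TNFα and IL-8 in supernatants after 4 hr 0.1 μg/mL LPS (E. coli O111:B4) challenge of U937 cells differentiated with PMA 100 ng/ml for 48–72 hr, compound added 2 hr beforehand. IL-8: IC50 from inhibition versus vehicle; TNFα: REC50 from inhibition as percentage of 10 μg/mL BIRB796 effect.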

[2] = test system: TNFα release in d-U937 cells; assay: LPS-induced TNFα release in d-U937 cells; type: cell-based, human; conditions: Homo sapiens, dU937, relative to 10 μg/mL BIRB796, read-out: LPS/TNFα REC50 d-U937
How it was run: as §1

[3] = biological target: T1, p38 MAPKα isoform (MAPK14) (Homo sapiens, UniProt Q16539); assay: Enzyme inhibition assay (FRET, Z-LYTE), p38 MAPKα via MAPKAP-K2 activation; type: biochemical; conditions: read-out: Enzyme Inhibition IC50 p38α
T1 construct: purchased Invitrogen
How it was run: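 Z-LYTE FRET format, in which protease cleaves only non-phosphorylated peptide, read after 1 h development. Compound was mixed with p38 MAPKα for 2 h at RT, and inhibition was gauged from MAPKAP-K2 activation/phosphorylation rather than directly. Percent inhibition against an uninhibited control was fitted to give IC50.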

[4] = test system: TNFα release in THP-1 cells; assay: LPS-induced TNFα release in THP-1 cells; type: cell-based, human; conditions: Homo sapiens
How it was run: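 IC50 derived from concentration-response of TNFα inhibition relative to vehicle, with TNFα quantified by sandwich ELISA in supernatants. THP-1 cells were challenged 4 hr with LPS (E. coli, 3 μg/mL).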

[5] = test system: Differentiated U937 cells; assay: Cell viability MTT assay; type: cell-based, human; conditions: negative = apparent increase in viability; for MTT Assay (Viability) 4 h d-U937, percentage loss of cell viability: 4 hr in 5% FCS; for MTT Assay (Viability) 24 h d-U937, percentage loss of cell viability: 24 h in 10% FCS
How it was run: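 Differentiated U937 cells pre-incubated with compound either 4 hr in 5% FCS or 24 h in 10% FCS, then 1 hr MTT. Formazan dissolved in DMSO, absorbance at 550 nm. Percentage viability loss relative to 0.5% DMSO vehicle; apparent increases appear as negative percentages.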

[6] = test system: ICAM-1 induction in BEAS2B cells; assay: Poly I:C-induced ICAM-1 induction in BEAS2B cells; type: cell-based, human; conditions: Homo sapiens, BEAS-2B, read-out: PolyIC/ICAM1 IC50 BEAS2B
How it was run: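 IC50 reflects inhibition of cell-surface ICAM-1 relative to vehicle, read by ELISA (OD450 against 655 nm) and divided by crystal violet OD595 for cell number. Readings were taken 18 hr after transfection of 1 μg/mL poly I:C into BEAS2B cells. Compound was added 2 hr before stimulation.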

p38 MAPKγ (MAPK12) = biological target: T2, p38 MAPKγ (MAPK12) (Homo sapiens, UniProt P53778); assay: Enzyme inhibition assay (FRET, Z-LYTE), p38 MAPKγ; type: biochemical; conditions: read-out: Enzyme Inhibition IC50 p38γ
T2 construct: purchased Invitrogen
T2 sequence (P53778 1-367): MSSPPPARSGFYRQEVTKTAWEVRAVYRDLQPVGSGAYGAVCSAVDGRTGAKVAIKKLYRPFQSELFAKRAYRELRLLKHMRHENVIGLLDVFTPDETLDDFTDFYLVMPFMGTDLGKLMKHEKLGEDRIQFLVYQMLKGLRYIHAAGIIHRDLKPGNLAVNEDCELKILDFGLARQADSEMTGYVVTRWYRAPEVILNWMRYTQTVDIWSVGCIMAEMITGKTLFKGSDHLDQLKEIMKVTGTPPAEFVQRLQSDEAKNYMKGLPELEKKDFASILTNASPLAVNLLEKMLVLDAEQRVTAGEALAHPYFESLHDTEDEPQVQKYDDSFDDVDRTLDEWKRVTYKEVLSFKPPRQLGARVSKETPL
How it was run: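 Z-LYTE FRET readout: after 1 h kinase reaction (ATP 100 μM, peptide 2 μM) following 2 h RT enzyme–compound preincubation in HEPES, protease cleaves only unphosphorylated peptide. Percent inhibition from donor/acceptor ratio relative to control; IC50 fitted from the curve.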

T1 sequence (Q16539 whole entry, canonical isoform): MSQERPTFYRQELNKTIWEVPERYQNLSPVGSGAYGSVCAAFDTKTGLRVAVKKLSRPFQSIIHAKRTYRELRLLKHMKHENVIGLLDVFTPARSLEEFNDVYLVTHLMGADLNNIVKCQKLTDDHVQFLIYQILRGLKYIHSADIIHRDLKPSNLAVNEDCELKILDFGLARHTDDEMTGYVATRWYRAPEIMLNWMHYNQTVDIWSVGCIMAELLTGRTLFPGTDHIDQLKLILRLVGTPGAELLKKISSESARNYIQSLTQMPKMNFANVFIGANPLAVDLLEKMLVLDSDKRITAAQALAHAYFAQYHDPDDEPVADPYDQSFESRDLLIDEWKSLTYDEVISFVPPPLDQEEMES

pIC50 [1]	pEC50 [2]	pIC50 [3]	pIC50 [4]	pIC50 (p38 MAPKγ (MAPK12))	SMILES	MTT Assay (Viability) 4 h d-U937, percentage loss of cell viability [5] [%]	MTT Assay (Viability) 24 h d-U937, percentage loss of cell viability [5] [%]	pIC50 [6]
6.91	6.95	8.89	6.95	7.44	COCC(=O)Nc1cc(Oc2ccc(NC(=O)Nc3cc(C(C)(C)C)nn3-c3ccc(C)cc3)c3[nH]ncc23)ccn1 [Example 7, N-(4-(7-(3-(3-tert-Butyl-1-p-tolyl-1H-pyrazol-5-yl)ureido)-1H-indazol-4-yloxy)pyridin-2-yl)-2-methoxyacetamide]	−2.0	64.5	6.83
8.68	8.77	7.84	9.00	7.77	COc1ccc(-n2nc(C(C)(C)C)cc2NC(=O)Nc2ccc(Oc3ccnc(NC(=O)N4CCC(N(C)C)CC4)c3)c(Cl)c2Cl)cc1 [Example 87, N-(4-(4-(3-(3-tert-butyl-1-(4-methoxyphenyl)-1H-pyrazol-5-yl)ureido)-2,3-dichlorophenoxy)pyridin-2-yl)-4-(dimethylamino)piperidine-1-carboxamide]	7.1	39.3	9.00
5.30	6.06	7.44	< 5.77	5.84	COCC(=O)Nc1cc(COc2ccc(NC(=O)Nc3cc(C(C)(C)C)nn3-c3ccc(C)cc3)c3cccnc23)ccn1 [Example 16, N-(4-((5-(3-(3-tert-Butyl-1-p-tolyl-1H-pyrazol-5-yl)ureido)quinolin-8-yloxy)methyl)pyridin-2-yl)-2-methoxyacetamide]	−8.1	−21.3	< 5.77
8.66	8.80	7.07	8.85	7.02	COc1ccc(-n2nc(C(C)(C)C)cc2NC(=O)Nc2ccc(Oc3ccnc(NC(=O)NC4CC4)c3)c(C#N)c2Cl)cc1 [Example 78, 1-(3-tert-butyl-1-(4-methoxyphenyl)-1H-pyrazol-5-yl)-3-(2-chloro-3-cyano-4-(2-(3-cyclopropylureido)pyridin-4-yloxy)phenyl) urea]	1.0	20.9	8.66
6.63	6.74	7.49	8.60	7.03	CNC(=O)Nc1cc(Oc2ccc(NC(=O)Nc3cc(C(C)(C)C)nn3-c3ccc(CO)cc3)c3ncccc23)ccn1 [Example 61, 1-(4-(8-(3-(3-tert-butyl-1-(4-hydroxymethylphenyl)-1H-pyrazol-5-yl)ureido)quinolin-5-yloxy)pyridin-2-yl)-3-methylurea]	−31.9	−12.9	7.94
7.59	7.75	7.43	8.15	6.87	CNC(=O)Nc1cc(Oc2ccc(NC(=O)Nc3cc(C(C)(C)C)nn3-c3ccc(CO)cc3)c3cccnc23)ccn1 [Example 62]	−13.4	−22.9	7.15
9.70	8.72	7.38	9.22	6.50	Cc1ccc(-n2nc(C(C)(C)C)cc2NC(=O)Nc2ccc(Oc3ccnc(NC(=O)N4CCCC4)c3)c(Cl)c2Cl)cc1 [Example 72, N-(4-(4-(3-(3-tert-butyl-1-p-tolyl-1H-pyrazol-5-yl)ureido)-2,3-dichlorophenoxy)pyridin-2-yl) pyrrolidine-1-carboxamide]	−13.7	26.9	8.12
8.33	9.05	8.12	9.30	7.76	CNCC(=O)Nc1cc(Oc2ccc(NC(=O)Nc3cc(C(C)(C)C)nn3-c3ccc(CO)cc3)c(Cl)c2Cl)ccn1 [Example 8, N-(4-(4-(3-(3-tert-Butyl-1-(4-(hydroxymethyl)phenyl)-1H-pyrazol-5-yl)ureido)-2,3-dichlorophenoxy)pyridin-2-yl)-2-(methylamino)acetamide]	−7.0	85.6	8.62
8.02	8.64	6.98	9.05	7.39	COCC(=O)Nc1cc(Oc2ccc(NC(=O)Nc3cc(C(C)(C)C)nn3-c3ccc(C)cc3)c(F)c2)ccn1 [Example 1, N-(4-(4-(3-(3-tert-Butyl-1-p-tolyl-1H-pyrazol-5-yl)ureido)-3-fluorophenoxy)pyridin-2-yl)-2-methoxyacetamide]	1.7	76.1	8.06
8.64	8.89	7.34	8.89	6.90	COCC(=O)Nc1nccc(Oc2ccc(NC(=O)Nc3cc(C(C)(C)C)nn3-c3ccc(C)cc3)c(Cl)c2Cl)n1 [Example 90, N-(4-(4-(3-(3-tert-butyl-1-p-tolyl-1H-pyrazol-5-yl)ureido)-2,3-dichlorophenoxy)pyrimidin-2-yl)-2-methoxyacetamide]	−26.8	−0.5	8.17
9.70	9.70	7.52	8.80	6.76	CNC(=O)Nc1cc(Oc2ccc(NC(=O)Nc3cc(C(C)(C)C)nn3-c3ccc(C)cc3)c(Cl)c2Cl)ncn1 [Example 95, 1-(3-tert-butyl-1-p-tolyl-1H-pyrazol-5-yl)-3-(2,3-dichloro-4-(6-(3-methylureido)pyrimidin-4-yloxy)phenyl)urea]	−38.0	22.5	8.96
8.52	8.64	7.33	7.83	6.78	CNC(=O)Nc1cc(Oc2ccc(NC(=O)Nc3cc(C(C)(C)C)nn3-c3ccc(OC)cc3)c3ncccc23)ccn1 [Example 57, 1-(3-tert-butyl-1-(4-methoxyphenyl)-1H-pyrazol-5-yl)-3-(5-(2-(3-methylureido)pyridin-4-yloxy)quinolin-8-yl)urea]	−23.6	−56.2	6.85
7.75	9.10	7.34	8.66	7.34	COCC(=O)Nc1cc(Oc2ccc(NC(=O)Nc3cc(C(C)(C)C)nn3-c3ccc(C)cc3)cc2Cl)ccn1 [Example 29, N-(4-(4-(3-(3-tert-butyl-1-p-tolyl-1H-pyrazol-5-yl)ureido)-2-chlorophenoxy)pyridin-2-yl)-2-methoxyacetamide]	−0.7	30.8	7.11
